Biological target: T1, PARP3 (Homo sapiens, UniProt Q9Y6F1)
T1 construct: made in house; host or cells: insect cells (Sf9 or High-Five), baculovirus, pFASTBAC-1
T1 sequence (Q9Y6F1 1-533): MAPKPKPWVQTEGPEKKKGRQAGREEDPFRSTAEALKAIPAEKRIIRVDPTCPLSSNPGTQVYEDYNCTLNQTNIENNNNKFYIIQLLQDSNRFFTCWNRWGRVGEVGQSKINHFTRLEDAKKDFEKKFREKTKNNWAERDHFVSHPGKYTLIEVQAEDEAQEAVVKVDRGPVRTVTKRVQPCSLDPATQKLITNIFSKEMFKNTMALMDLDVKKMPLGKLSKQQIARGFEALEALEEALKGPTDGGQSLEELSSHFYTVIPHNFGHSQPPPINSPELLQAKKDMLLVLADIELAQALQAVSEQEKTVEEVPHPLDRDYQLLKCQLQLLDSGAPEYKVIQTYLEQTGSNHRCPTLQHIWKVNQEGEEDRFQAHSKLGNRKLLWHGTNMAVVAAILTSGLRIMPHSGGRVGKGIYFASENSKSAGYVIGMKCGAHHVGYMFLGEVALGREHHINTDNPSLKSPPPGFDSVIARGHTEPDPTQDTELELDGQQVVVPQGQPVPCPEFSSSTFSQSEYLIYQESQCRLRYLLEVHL
Experiment: PARP inhibition assay, selectivity PARP2 versus PARP3
Format: biochemical
Conditions: PARP2 compared with PARP3 as printed
Protocol: Assay Systems for Determining the Activity of PARP2 and PARP3 and the Inhibitory Action of Effectors on PARP1, PARP2 and PARP3
Various concentrations were used to construct a dose-effect plot to determine the Ki value of an inhibitor. Values are obtained in triplicate for a particular inhibitor concentration. Arithmetic means are determined using Microsoft© Excel. The IC50 is determined using the Microcal© Origin Software (Vers. 5.0) (“Sigmoidal Fit”). Conversion of the IC50 value is calculated in this way into Ki values took place by using “calibration inhibitors”.
The “calibration inhibitors” were also measured in each analysis. The Ki values of the “calibration inhibitors” were determined in the same assay system by analysis of the Dixon diagram in the manner familiar to the skilled worker.
Measurement was then possible after 30 minutes (up to 4 hours). The measurement took place in a “discovery HTRF microplate analyzer” (Canberra Packard Instruments). The Ki values were calculated as described for the ELISA.

selectivity for PARP2 over PARP3: eight times
SMILES: O=c1[nH]nc(CNc2ccc(O)cc2)c2ccccc12 [4-(N-(4-hydroxyphe-nyl)aminomethyl)-(2H)-dihydrophthalazine-1-one]
